# Reference: patent US11986471B2, “Compounds and methods of use” (Tango Therapeutics, Inc., priority 2018, dated 2024)
# Legend:
# HAP1 MTAP-deleted = assay: SDMA in-cell western assay, HAP1 MTAP-deleted cell line; type: cell-based; settings: for IC50: Homo sapiens, HAP1 MTAP-deleted cell line; for MTAP Intact/Deleted Ratio: IC50 ratio HAP1 MTAP-intact / HAP1 MTAP-deleted
# Summary of the method: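 MTAP-null HAP1 cells, the deleted member of an isogenic pair with endogenously MTAP-expressing HAP1, are treated with compound. SDMA is then quantified by in-cell western and an IC50 is calculated.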
# PRMT5 [1] = target: T1, PRMT5 (Homo sapiens, UniProt O14744); assay: PRMT5 IC50 assay in the presence of MTA as cofactor; type: biochemical; settings: for IC50: PRMT5, MTA as cofactor
# T1 construct: purchased Viva (custom protein)
# Summary of the method: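 Ki conversion: SAM arm, Ki=IC50/1.5; MTA arm, Ki=IC50/13.5. No-cofactor arm reported as IC50 only. Selectivity expressed as Ki(SAM)/Ki(MTA).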
# HAP1 MTAP-intact = assay: SDMA in-cell western assay, HAP1 MTAP-intact cell line; type: cell-based; settings: Homo sapiens
# Summary of the method: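 Cells from two matched HAP1 lines, MTAP-null and MTAP-expressing at endogenous levels, are treated with compound. SDMA is then quantified by in-cell western and an IC50 is calculated for each line.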
# PRMT5 [2] = target: T1, PRMT5; assay: PRMT5 IC50 assay with no cofactor; type: biochemical
# Summary of the method: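 Enzyme: human PRMT5. Conditions: plus SAM, plus MTA, or cofactor-free. Output: IC50 (μM); Ki via IC50/1.5 (SAM) or IC50/13.5 (MTA).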
# PRMT5 [3] = target: T1, PRMT5; assay: PRMT5 IC50 assay in the presence of SAM as cofactor; type: biochemical
# Summary of the method: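 Values reflect IC50 (μM) on human PRMT5 under three cofactor states. Selectivity is derived as the quotient of SAM-state Ki over MTA-state Ki, with each Ki obtained from its IC50.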
# [4] = ratio between the Ki in the presence of SAM and the Ki in the presence of MTA
# [5] = ratio between Ki in the presence of SAM and Ki in the presence of MTA
# T1 sequence (O14744 whole entry): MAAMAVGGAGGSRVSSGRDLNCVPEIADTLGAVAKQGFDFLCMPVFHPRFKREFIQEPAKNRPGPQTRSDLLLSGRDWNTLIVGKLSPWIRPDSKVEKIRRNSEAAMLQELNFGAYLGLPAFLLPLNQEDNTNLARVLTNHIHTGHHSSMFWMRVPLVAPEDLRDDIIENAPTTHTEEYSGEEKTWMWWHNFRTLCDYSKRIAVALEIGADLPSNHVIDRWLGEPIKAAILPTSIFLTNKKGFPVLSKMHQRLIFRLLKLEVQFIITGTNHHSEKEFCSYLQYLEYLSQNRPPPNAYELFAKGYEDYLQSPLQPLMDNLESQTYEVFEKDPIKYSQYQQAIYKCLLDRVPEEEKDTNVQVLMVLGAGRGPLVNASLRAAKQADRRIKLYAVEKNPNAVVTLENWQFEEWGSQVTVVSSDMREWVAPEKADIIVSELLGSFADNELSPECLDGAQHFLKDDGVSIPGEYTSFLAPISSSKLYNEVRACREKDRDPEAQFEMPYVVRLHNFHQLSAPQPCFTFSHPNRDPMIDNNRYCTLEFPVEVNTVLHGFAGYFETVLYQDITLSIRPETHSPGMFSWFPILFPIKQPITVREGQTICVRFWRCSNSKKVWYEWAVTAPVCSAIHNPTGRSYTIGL
# T1 sequence (Q9BQA1 whole entry partner): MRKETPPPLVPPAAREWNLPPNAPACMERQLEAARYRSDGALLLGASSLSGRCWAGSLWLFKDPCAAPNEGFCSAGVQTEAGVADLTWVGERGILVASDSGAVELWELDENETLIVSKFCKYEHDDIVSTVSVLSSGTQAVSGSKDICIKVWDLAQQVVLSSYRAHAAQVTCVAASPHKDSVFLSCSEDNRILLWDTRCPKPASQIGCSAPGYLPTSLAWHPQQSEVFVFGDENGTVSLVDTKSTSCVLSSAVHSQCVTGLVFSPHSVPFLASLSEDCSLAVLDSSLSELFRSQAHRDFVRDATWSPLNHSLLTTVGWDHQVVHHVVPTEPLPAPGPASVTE
Compound,IC50 (HAP1 MTAP-deleted) [nM],MTAP Intact/Deleted Ratio (HAP1 MTAP-deleted),IC50 (PRMT5 [1]) [nM],SAM/MTA Ratio (PRMT5 [1]; [4]),IC50 (HAP1 MTAP-intact) [nM],IC50 (PRMT5 [2]) [nM],IC50 (PRMT5 [3]) [nM],SAM/MTA Ratio (PRMT5 [1]; [5]),IC50 (PRMT5 [2]; read-out: No Co-factor IC50) [nM]
"CCCC(=O)N1CC(Nc2cc(C(=O)NC[C@H](O)CN3CCc4c(ccc(OCc5cnco5)c4C)C3)ccn2)C1 [Compound 551, (S)-2-((1-butyrylazetidin-3-yl)amino)-N-(2-hydroxy-3-(5-methyl-6-(oxazol-5-ylmethoxy)-3,4-dihydroisoquinolin-2(1H)-yl)propyl)isonicotinamide]",≥ 10000,C* (an IC50 ratio of less than 3 fold between the IC50 in the HAP1 MTAP-intact cell line and the HAP1 MTAP-deleted cell line),50 to 500,A (a Ki ratio greater than or equal to 10 fold between the Ki in the presence of SAM and the Ki in the presence of MTA),≥ 10000,500 to 5000,50 to 500,–,–
"Cc1ncoc1COc1ccc2c(c1)CCN(C[C@@H](O)CNC(=O)c1cc(NC3CC4(CC4)C3)nc(N3CCN(C(=O)C4CC4)CC3)c1)C2 [Compound 611, (S)-2-(4-(cyclopropanecarbonyl)piperazin-1-yl)-N-(2-hydroxy-3-(6-((4-methyloxazol-5-yl)methoxy)-3,4-dihydroisoquinolin-2(1H)-yl)propyl)-6-(spiro[2.3]hexan-5-ylamino)isonicotinamide]",< 1000,B* (an IC50 ratio greater than or equal to 3 fold but lower than 10 fold between the IC50 in the HAP1 MTAP-intact cell line and the HAP1 MTAP-deleted cell line),< 50,A (a Ki ratio greater than or equal to 10 fold between the Ki in the presence of SAM and the Ki in the presence of MTA),< 1000,50 to 500,50 to 500,–,–
"Cc1ncoc1COc1ccc2c(c1C)CCN(C[C@@H](O)CNC(=O)c1cc(NC3CCC3)nc(N3CCN(C)CC3)c1)C2 [Compound 503, 2-(cyclobutylamino)-N-[(2S)-2-hydroxy-3-{5-methyl-6-[(4-methyl-1,3-oxazol-5-yl)methoxy]-1,2,3,4-tetrahydroisoquinolin-2-yl}propyl]-6-(4-methylpiperazin-1-yl)pyridine-4-carboxamide]",< 1000,A* (an IC50 ratio greater than or equal to 10 fold between the IC50 in the HAP1 MTAP-intact cell line and the HAP1 MTAP-deleted cell line),50 to 500,A (a Ki ratio greater than or equal to 10 fold between the Ki in the presence of SAM and the Ki in the presence of MTA),≥ 10000,500 to 5000,50 to 500,–,–
"Cc1ncoc1COc1ccc2c(c1Cl)CCN(C[C@@H](O)CNC(=O)c1cccc(NC3CCC3)c1)C2 [Compound 344, N-[(2S)-3-{5-chloro-6-[(4-methyl-1,3-oxazol-5-yl)methoxy]-1,2,3,4-tetrahydroisoquinolin-2-yl}-2-hydroxypropyl]-3-(cyclobutylamino)benzamide]",≥ 10000,C* (an IC50 ratio of less than 3 fold between the IC50 in the HAP1 MTAP-intact cell line and the HAP1 MTAP-deleted cell line),50 to 500,–,≥ 10000,–,50 to 500,A (a Ki ratio greater than or equal to 10 fold between the Ki in the presence of SAM and the Ki in the presence of MTA),≥ 5000
"Cc1ncoc1COc1ccc2c(c1Br)CCN(C[C@@H](O)CNC(=O)c1ccnc(NC3CCCCC3)c1)C2 [Compound 346, (S)—N-(3-(5-bromo-6-((4-methyloxazol-5-yl)methoxy)-3N-dihydroisoquinolin-2(1H)-yl)-2-hydroxypropyl)-2-(cyclohexylamino)isonicotinamide]",≥ 10000,C* (an IC50 ratio of less than 3 fold between the IC50 in the HAP1 MTAP-intact cell line and the HAP1 MTAP-deleted cell line),50 to 500,–,≥ 10000,–,500 to 5000,A (a Ki ratio greater than or equal to 10 fold between the Ki in the presence of SAM and the Ki in the presence of MTA),≥ 5000
"COc1ccc(C(=O)N2CCc3cc(C(=O)NC[C@H](O)CN4CCc5cc(OCc6cnco6)ccc5C4)ccc3C2)cc1 [Compound 547, (S)—N-(2-hydroxy-3-(6-(oxazol-5-ylmethoxy)-3,4-dihydroisoquinolin-2(1H)-yl)propyl)-2-(4-methoxybenzoyl)-1,2,3,4-tetrahydroisoquinoline-6-carboxamide]",1000 to 10000,C* (an IC50 ratio of less than 3 fold between the IC50 in the HAP1 MTAP-intact cell line and the HAP1 MTAP-deleted cell line),50 to 500,A (a Ki ratio greater than or equal to 10 fold between the Ki in the presence of SAM and the Ki in the presence of MTA),1000 to 10000,500 to 5000,50 to 500,–,–
"COc1ccc(C(=O)N2CCc3cc(C(=O)NC[C@H](O)CN4CCc5c(ccc(OCc6cnco6)c5C)C4)ccc3C2)cc1 [Compound 540, N-[(2S)-2-hydroxy-3-{5-methyl-6-[(1,3-oxazol-5-yl)methoxy]-1,2,3,4-tetrahydroisoquinolin-2-yl}propyl]-2-(4-methoxybenzoyl)-1,2,3,4-tetrahydroisoquinoline-6-carboxamide]",1000 to 10000,C* (an IC50 ratio of less than 3 fold between the IC50 in the HAP1 MTAP-intact cell line and the HAP1 MTAP-deleted cell line),50 to 500,A (a Ki ratio greater than or equal to 10 fold between the Ki in the presence of SAM and the Ki in the presence of MTA),≥ 10000,500 to 5000,50 to 500,–,–
"CCC(=O)N1CCN(c2nc(NC3COC3)cc(C(=O)NC[C@H](O)CN3CCc4cc(OCc5ocnc5C)ccc4C3)n2)CC1 [Compound 409, N-[(2S)-2-hydroxy-3-{6-[(4-methyl-1,3-oxazol-5-yl)methoxy]-1,2,3,4-tetrahydroisoquinolin-2-yl}propyl]-6-[(oxetan-3-yl)amino]-2-(4-propanoylpiperazin-1-yl)pyrimidine-4-carboxamide]",1000 to 10000,B* (an IC50 ratio greater than or equal to 3 fold but lower than 10 fold between the IC50 in the HAP1 MTAP-intact cell line and the HAP1 MTAP-deleted cell line),50 to 500,–,≥ 10000,–,50 to 500,A (a Ki ratio greater than or equal to 10 fold between the Ki in the presence of SAM and the Ki in the presence of MTA),500 to 5000
CC(=O)N1CCN(c2nc(NC3COC3)cc(C(=O)NC[C@H](O)CN3CCc4cc(OCc5cnco5)ccc4C3)n2)CC1 [Compound 321],1000 to 10000,C* (an IC50 ratio of less than 3 fold between the IC50 in the HAP1 MTAP-intact cell line and the HAP1 MTAP-deleted cell line),50 to 500,–,≥ 10000,–,50 to 500,A (a Ki ratio greater than or equal to 10 fold between the Ki in the presence of SAM and the Ki in the presence of MTA),500 to 5000
"Cc1ncoc1COc1cc2c(cc1F)CN(C[C@@H](O)CNC(=O)c1ccnc(NC3CCC3)c1)CC2 [Compound 266, (S)-2-(cyclobutylamino)-N-(3-(7-fluoro-6-((4-methyloxazol-5-yl)methoxy)-3,4-dihydroisoquinolin-2(1H)-yl)-2-hydroxypropyl)isonicotinamide]",1000 to 10000,B* (an IC50 ratio greater than or equal to 3 fold but lower than 10 fold between the IC50 in the HAP1 MTAP-intact cell line and the HAP1 MTAP-deleted cell line),50 to 500,–,1000 to 10000,–,50 to 500,A (a Ki ratio greater than or equal to 10 fold between the Ki in the presence of SAM and the Ki in the presence of MTA),500 to 5000
"CC(=O)N1CCC(Nc2cc(C(=O)NC[C@H](O)CN3CCc4c(ccc(OCc5conc5C)c4Cl)C3)ncn2)CC1 [Compound 251, (S)-6-((1-acetylpiperidin-4-yl)amino)-N-(3-(5-chloro-6-((3-methylisoxazol-4-yl)methoxy)-3N-dihydroisoquinolin-2(1H)-yl)-2-hydroxypropyl)pyrimidine-4-carboxamide]",≥ 10000,C* (an IC50 ratio of less than 3 fold between the IC50 in the HAP1 MTAP-intact cell line and the HAP1 MTAP-deleted cell line),500 to 5000,–,≥ 10000,–,500 to 5000,–,≥ 5000
